Assay results: PubChem BioAssay AID1845194 (Molecular Pharmacology Branch, DTP, NCI, 2023)

Test system: 287954-098-R-J1 tumor spheroid viability
Assay: Anticancer human tumor 287954-098-R-J1 patient-derived Ewing sarcoma cell line growth inhibition
Details: spheroids with HUVEC and MSC; for IC50: curve of first compound; for viability, T/C: stronger effect = lower value; active means viability on the fitted dose curve at most 10% of control; inactive means the rest
How it was run: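 Single agents and combinations were tested on spheroids built from tumor cells plus HUVEC and hMSC, at half-log dilutions starting at or near clinical Cmax, else 10 microM; final DMSO 0.25% (v/v).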

[1] = second compound 0.003 µM, first compound 0.0316 µM
[2] = second compound 0.003 µM, first compound 0.1 µM
[3] = second compound 0.003 µM, first compound 0.316 µM
[4] = second compound 0.003 µM, first compound 1 µM
[5] = second compound 0.003 µM, first compound 3.16 µM
[6] = second compound 0.003 µM, first compound 10 µM
[7] = second compound 0.00949 µM, first compound 0.0316 µM
[8] = second compound 0.00949 µM, first compound 0.1 µM
[9] = second compound 0.00949 µM, first compound 0.316 µM
[10] = second compound 0.00949 µM, first compound 1 µM
[11] = second compound 0.00949 µM, first compound 3.16 µM
[12] = second compound 0.00949 µM, first compound 10 µM
[13] = second compound 0.03 µM, first compound 0.0316 µM
[14] = second compound 0.03 µM, first compound 0.1 µM
[15] = second compound 0.03 µM, first compound 0.316 µM
[16] = second compound 0.03 µM, first compound 1 µM
[17] = second compound 0.03 µM, first compound 3.16 µM
[18] = second compound 0.03 µM, first compound 10 µM
[19] = second compound 0.0949 µM, first compound 0.0316 µM
[20] = second compound 0.0949 µM, first compound 0.1 µM
[21] = second compound 0.0949 µM, first compound 0.316 µM
[22] = second compound 0.0949 µM, first compound 1 µM
[23] = second compound 0.0949 µM, first compound 3.16 µM
[24] = second compound 0.0949 µM, first compound 10 µM
[25] = second compound 0.3 µM, first compound 0.0316 µM
[26] = second compound 0.3 µM, first compound 0.1 µM
[27] = second compound 0.3 µM, first compound 0.316 µM
[28] = second compound 0.3 µM, first compound 1 µM
[29] = second compound 0.3 µM, first compound 3.16 µM
[30] = second compound 0.3 µM, first compound 10 µM
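Further: spheroids exposed to compound for 7 days before viability readout.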
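Wherever viability, T/C is given: luminescent signal taken as surrogate of viable cell content; 100% = DMSO vehicle control viability and lower means growth inhibition.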

Cc1cc(C)c(CNC(=O)c2cc(-c3ccc(CN4CCOCC4)cc3)cc3c2cnn3C2CCCC2)c(=O)[nH]1 + CC[C@@]1(O)C(=O)OCc2c1cc1n(c2=O)Cc2cc3c(CN(C)C)c(O)ccc3nc2-1
active: viability, T/C [19] 2.57% | viability, T/C [20] 2.37% | viability, T/C [21] 2.24% | viability, T/C [22] 2.24% | viability, T/C [23] 2.58% | viability, T/C [24] 2.04% | viability, T/C [25] 2.22% | viability, T/C [26] 2.08% | viability, T/C [27] 2.15% | viability, T/C [28] 2.38% | viability, T/C [29] 2.39% | viability, T/C [30] 1.61%
> 10000 nM: IC50 (second compound 0.003 µM) | IC50 (second compound 0.00949 µM)
inactive: viability, T/C [1] 104% | viability, T/C [2] 106% | viability, T/C [3] 98.6% | viability, T/C [4] 96.5% | viability, T/C [5] 102% | viability, T/C [6] 119% | viability, T/C [7] 100% | viability, T/C [8] 114% | viability, T/C [9] 102% | viability, T/C [10] 108% | viability, T/C [11] 104% | viability, T/C [12] 104% | viability, T/C [13] 12.5% | viability, T/C [14] 42.9% | viability, T/C [15] 21.1% | viability, T/C [16] 36.1% | viability, T/C [17] 28.2% | viability, T/C [18] 18.9%
< 31.6 nM: IC50 (second compound 0.03 µM) | IC50 (second compound 0.0949 µM) | IC50 (second compound 0.3 µM)

Cc1sc2c(c1C)C(c1ccc(Cl)cc1)=NC(CC(=O)Nc1ccc(O)cc1)c1nnc(C)n1-2 (stereo not given) + CC[C@@]1(O)C(=O)OCc2c1cc1n(c2=O)Cc2cc3c(CN(C)C)c(O)ccc3nc2-1
active: viability, T/C (second compound 0.003 µM, first compound 3 µM) 1.91% | viability, T/C (second compound 0.00949 µM, first compound 0.3 µM) 9.5% | viability, T/C (second compound 0.00949 µM, first compound 0.949 µM) 1.8% | viability, T/C (second compound 0.00949 µM, first compound 3 µM) 1.47% | viability, T/C (second compound 0.03 µM, first compound 0.00949 µM) 2.84% | viability, T/C (second compound 0.03 µM, first compound 0.03 µM) 3% | viability, T/C (second compound 0.03 µM, first compound 0.0949 µM) 1.99% | viability, T/C (second compound 0.03 µM, first compound 0.3 µM) 1.63% | viability, T/C (second compound 0.03 µM, first compound 0.949 µM) 1.17% | viability, T/C (second compound 0.03 µM, first compound 3 µM) 1.04% | viability, T/C (second compound 0.0949 µM, first compound 0.00949 µM) 1.98% | viability, T/C (second compound 0.0949 µM, first compound 0.03 µM) 2.06% | viability, T/C (second compound 0.0949 µM, first compound 0.0949 µM) 1.8% | viability, T/C (second compound 0.0949 µM, first compound 0.3 µM) 1.32% | viability, T/C (second compound 0.0949 µM, first compound 0.949 µM) 1.09% | viability, T/C (second compound 0.0949 µM, first compound 3 µM) 1.22% | viability, T/C (second compound 0.3 µM, first compound 0.00949 µM) 1.94% | viability, T/C (second compound 0.3 µM, first compound 0.03 µM) 2.02% | viability, T/C (second compound 0.3 µM, first compound 0.0949 µM) 1.68% | viability, T/C (second compound 0.3 µM, first compound 0.3 µM) 1.25% | viability, T/C (second compound 0.3 µM, first compound 0.949 µM) 1.2% | viability, T/C (second compound 0.3 µM, first compound 3 µM) 1%
185 nM: IC50 (second compound 0.00949 µM)
555 nM: IC50 (second compound 0.003 µM)
< 9.49 nM: IC50 (second compound 0.03 µM) | IC50 (second compound 0.0949 µM) | IC50 (second compound 0.3 µM)
inactive: viability, T/C (second compound 0.003 µM, first compound 0.00949 µM) 110% | viability, T/C (second compound 0.003 µM, first compound 0.03 µM) 117% | viability, T/C (second compound 0.003 µM, first compound 0.0949 µM) 123% | viability, T/C (second compound 0.003 µM, first compound 0.3 µM) 90.1% | viability, T/C (second compound 0.003 µM, first compound 0.949 µM) 15.2% | viability, T/C (second compound 0.00949 µM, first compound 0.00949 µM) 117% | viability, T/C (second compound 0.00949 µM, first compound 0.03 µM) 112% | viability, T/C (second compound 0.00949 µM, first compound 0.0949 µM) 106%

[2H]c1nc(C)nc([2H])c1-c1cc(NC[C@@H](C)c2cccc3c(C(=O)NC)ccnc23)ncn1 + CC[C@@]1(O)C(=O)OCc2c1cc1n(c2=O)Cc2cc3c(CN(C)C)c(O)ccc3nc2-1
< 31.6 nM: IC50 (second compound 0.03 µM) | IC50 (second compound 0.0949 µM) | IC50 (second compound 0.3 µM)
inactive: viability, T/C [1] 101% | viability, T/C [2] 109% | viability, T/C [3] 111% | viability, T/C [4] 107% | viability, T/C [5] 96.2% | viability, T/C [6] 105% | viability, T/C [7] 104% | viability, T/C [8] 108% | viability, T/C [9] 99.1% | viability, T/C [10] 106% | viability, T/C [11] 110% | viability, T/C [12] 109% | viability, T/C [13] 32% | viability, T/C [14] 31.6% | viability, T/C [15] 47.8% | viability, T/C [16] 10.1% | viability, T/C [17] 15.7%
> 10000 nM: IC50 (second compound 0.003 µM) | IC50 (second compound 0.00949 µM)
active: viability, T/C [18] 4.42% | viability, T/C [19] 1.07% | viability, T/C [20] 0.66% | viability, T/C [21] 0.37% | viability, T/C [22] 0.51% | viability, T/C [23] 0.49% | viability, T/C [24] 0.51% | viability, T/C [25] 0.91% | viability, T/C [26] 0.5% | viability, T/C [27] 0.31% | viability, T/C [28] 0.64% | viability, T/C [29] 0.57% | viability, T/C [30] 0.57%
